Assay results taken from US20090247599A1, “METHODS OF TREATING CELL PROLIFERATIVE DISORDERS USING A COMPRESSED TEMOZOLOMIDE DOSING SCHEDULE” (Schering Corporation, priority 2005, published 2009).

How the values were obtained:
[1] = tested on: LOX human melanoma xenograft tumors; test: LOX xenograft tumor growth in SCID mice; assay type: in vivo; conditions: i.p., 72 mg/kg total dose
Protocol: (§1) In brief, female athymic nude mice or female SCID mice (4-6 week old) from Charles River Laboratories were maintained in a VAF-barrier facility. Animal procedures were performed in accordance with the rules set forth in the N.I.H. guide for the care and use of laboratory animals.
(§2) DAOY human medulloblastoma cells (5×10^6), U373 human glioma cells (5×10^6), LOX human melanoma cells (5×10^5), and A375 human melanoma cells (5×10^6) were inoculated subcutaneously in the right flank of the animal (LOX in SCID mice; DAOY, U373, and A375 in nude mice). To facilitate in vivo growth, Matrigel was mixed with DAOY and A375 cells (50%) before inoculation. When tumor volumes were approximately 100 mm^3, animals were randomized and grouped (n=10 LOX, DAOY, and A375; n=9 U373). Tumor volumes and body weight were measured twice weekly using Labcat™ computer application (Innovative Programming Associates, N.J.). Tumor volumes were calculated by the formula (W×L×H)×π×⅙. TMZ was administered by intraperitoneal injections with 20% HPβCD (containing 1% DMSO) as vehicle.
Mice bearing xenograft tumors of LOX human melanoma cells, a low MGMT level cell line, were treated with TMZ using two different schedules. The same total dose was administered evenly divided over the course of either: (i) 4 or (ii) 12 days. […]

[2] = tested on: U373 human glioma xenograft tumors; test: U373 xenograft tumor growth in nude mice; assay type: in vivo; conditions: i.p.
Protocol: as §1, §2
Mice bearing xenograft tumors of U373 human glioma cells, a high MGMT level cell line, were treated with TMZ for 5 consecutive days (day 1 through day 5) over a cycle that is at least a 28-day cycle. […]

`Cn1nnc2c(C(N)=O)ncn2c1=O` [TMZ, 3,4-dihydro-3-methyl-4-oxoimidazo[5,1-d]-as-tetrazine-8-carboxamide] was tested, and the TGI ([1]; 4-day treatment schedule (Day 1-4)) was 88%, the TGI ([1]; 12-day schedule (Day 1-12)) was 50% and the TGI ([2]; 35 mg/kg for 5 consecutive days (175 mg/kg total)) was 100%. It also gave a TGI ([2]; 70 mg/kg for 5 consecutive days (350 mg/kg total)) of 113%.
